Assay results: ChEMBL document CHEMBL5150038, “Small-Molecule Receptor-Interacting Protein 1 (RIP1) Inhibitors as Therapeutic Agents for Multifaceted Diseases: Current Medicinal Chemistry Insights and Emerging Opportunities” (J Med Chem, 2022)

Assays:
[1] = Metabolic clearance in rat hepatocyte assessed as clearance measured per 10^6 cells; type: ADME, cell-based; conditions: hepatocytes, read-out: CLH
Hepatocyte = test: Metabolic clearance in human hepatocyte assessed as clearance; type: ADME, cell-based; conditions: hepatocytes

hepatocyte CLint [1]: 87 µL/min/1e6 cells | CLH (Hepatocyte): 42 µL/min/mg
SMILES: O=C(c1cnn(Cc2ccccc2)c1)N1CCOc2ccccc2C1
